Results published in article PMC9221443, “Peptidomimetics Based on C-Terminus of Blm10 Stimulate Human 20S Proteasome Activity and Promote Degradation of Proteins” (Biomolecules, 2022).

How the values were obtained:
[1] = test system: ChT-L peptidase of proteasome in HEK293T cell extracts; assay: Proteasome ChT-L activity in HEK293T cell lysates; format: biochemical, human; settings: 1 µM; HEK293T lysate 20 µg/mL protein; 100 µM Suc-LLVY-AMC
Description: Human embryonic kidney cells (HEK293T) were maintained in Dulbecco’s Modified Eagle Medium (DMEM) supplemented with 10% Fetal Bovine Serum and penicillin/streptomycin (100 units/mL/100 µg/mL), at 37 °C with 5% CO2. Cells were grown in a T-75 flask to ~80% confluency and then were lysed using Reporter Lysis Buffer (Promega, Madison, WI, USA) and the manufacturer’s protocol. Protein content was measured using BCA assay. Stock solutions of the fluorogenic substrate (Suc-LLVY-AMC) and the tested peptidomimetics were prepared in dimethyl sulfoxide (DMSO). Potential activators were tested in the following concentrations: 1, 5, 10, 25 and 50 μM. The final DMSO concentration was kept constant at 2%. The activity assays were performed analogously to those described in the proteasome activity assays subsection, in the 96-well plate format in 50 mM Tris-HCl buffer, pH 8.0, using a 100 μL reaction volume. The final concentration of the fluorogenic substrate and cell lysate proteins were: 100 μM and 20 µg/mL, respectively. As a negative control, 1 μM bortezomib solution was used.

20S proteasome (h20S) = assay: Microscale thermophoresis (MST) protein-proteasome interaction; format: binding, human; settings: NT-647-labeled protein titrated with h20S 0.06-1965 nM, 22 °C, 20 mM Tris-HCl pH 7.2, three independent experiments
Description: Enolase, α-synuclein and their oxidized forms were labeled using Monolith Protein Labeling Kit RED-NHS 2nd Generation Amine Reactive, NT-647 (Nanotemper, München, Germany), according to the manufacturer instructions. The labeling process was carried out in 50 mM HEPES buffer, pH 7.4, in the protein:NT-647 1:2 ratio. The incubation time was 60 min for enolase and 30 min for α-synuclein, at 21 °C. After labeling, the excess of the fluorescent reagent was removed using the columns provided by the manufacturer and 20 mM Tris-HCl buffer, pH 7.2, containing 200 mM NaCl and 10% glycerol. The obtained labeled proteins were concentrated on Amicon 3K spin-columns (Merck, Darmstadt, Germany). Protein concentrations were determined by measuring absorbance at 280 nm, using UV/Vis spectrophotometer (DU®730 Beckman Coulter).
Direct interactions between the fluorescently labeled, native and oxidized, proteins and the 20S proteasome were examined using microscale thermophoresis (NanoTemper Monolith NT.115). The labeled protein concentration was kept constant at 250 nM for native and oxidized α-synuclein and 125 nM and 25 nM for native and oxidized enolase, respectively. […] The EC50 values were calculated based on results obtained in three independent experiments.

## CC(C)C[C@H](NC(=O)[C@H](Cc1ccccc1)NC(=O)c1cnccn1)B(O)O [bortezomib]
[1]
  degradation of Suc-LLVY-AMC substrate in cell extracts (negative control): completely blocked

## α-synuclein
20S proteasome (h20S); read-out: EC50 of binding to 20S proteasome (MST, Hill fit)
  EC50: 32.3 ± 1.3 nM

## enolase: native human enolase 2, 434-residue thermolabile protein, model substrate
20S proteasome (h20S)
  EC50 of binding to 20S proteasome (MST, Hill fit): did not bind
